The values that follow come from ChEMBL document CHEMBL1743341, “Cytochrome p450 enzymes mechanism based inhibitors: common sub-structures and reactivity” (Curr Drug Metab, 2005).

Data set [1] addresses T1, Cytochrome P450 2E1 (Homo sapiens, UniProt P05181). The experiment in a line: (§1) Mechanism based inhibition of human cytochrome P450 2E1. The data set is classed as ADME.
Data set [2] has as its target T1, Cytochrome P450 2E1. The description is as §1. The format is ADME. The source holds these as a separate data set.
Data set [3] concerns the target T2, Cytochrome P450 1A2 (Homo sapiens, UniProt P05177).
T2 sequence (P05177 whole entry): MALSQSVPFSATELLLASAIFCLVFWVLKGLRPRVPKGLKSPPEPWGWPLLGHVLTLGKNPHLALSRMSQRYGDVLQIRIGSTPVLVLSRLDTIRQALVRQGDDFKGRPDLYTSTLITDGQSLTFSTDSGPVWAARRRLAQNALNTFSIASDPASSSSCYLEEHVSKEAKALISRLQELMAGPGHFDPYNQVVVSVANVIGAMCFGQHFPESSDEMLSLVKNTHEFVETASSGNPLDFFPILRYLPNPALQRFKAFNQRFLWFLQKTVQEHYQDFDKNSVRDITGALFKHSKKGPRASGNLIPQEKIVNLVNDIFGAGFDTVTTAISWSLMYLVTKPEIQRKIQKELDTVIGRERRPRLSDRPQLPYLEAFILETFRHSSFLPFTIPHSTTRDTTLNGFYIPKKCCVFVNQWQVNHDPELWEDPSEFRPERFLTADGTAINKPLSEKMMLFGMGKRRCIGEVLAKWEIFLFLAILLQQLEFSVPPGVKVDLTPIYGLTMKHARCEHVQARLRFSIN
As to the kind of experiment: (§2) Mechanism based inhibition of human cytochrome P450 1A2 measured by 7-ethoxyresorufin O-deethylation (EROD).

For data set [4], the target named is T3, Cytochrome P450 3A4 (Homo sapiens, UniProt P08684). As to the kind of experiment: Mechanism based inhibition of human cytochrome P450 3A4 measured in vivo. The data set is classed as ADME, organism-based.
Data set [5] has as its target T3, Cytochrome P450 3A4. The experiment in a line: Mechanism based inhibition of human cytochrome P450 3A4 measured by lovastatin 6'-beta hydroxylase activity. The format is ADME.
The target of data set [6] is T4, Cytochrome P450 3A5 (Homo sapiens, UniProt P20815). As to the kind of experiment: Mechanism based inhibition of human cytochrome P450 3A5. The format is ADME.
The target in data set [7] is T3, Cytochrome P450 3A4. The experiment in a line: Mechanism based inhibition of human cytochrome P450 3A4 measured by testosterone 6-beta hydroxylation. The data set is classed as ADME.
Data set [8] concerns the target T2, Cytochrome P450 1A2. The description is as §2. The data set is classed as ADME.
The target of data set [9] is T5, Cytochrome P450 1A1 (Homo sapiens, UniProt P04798).
T5 sequence (P04798 whole entry): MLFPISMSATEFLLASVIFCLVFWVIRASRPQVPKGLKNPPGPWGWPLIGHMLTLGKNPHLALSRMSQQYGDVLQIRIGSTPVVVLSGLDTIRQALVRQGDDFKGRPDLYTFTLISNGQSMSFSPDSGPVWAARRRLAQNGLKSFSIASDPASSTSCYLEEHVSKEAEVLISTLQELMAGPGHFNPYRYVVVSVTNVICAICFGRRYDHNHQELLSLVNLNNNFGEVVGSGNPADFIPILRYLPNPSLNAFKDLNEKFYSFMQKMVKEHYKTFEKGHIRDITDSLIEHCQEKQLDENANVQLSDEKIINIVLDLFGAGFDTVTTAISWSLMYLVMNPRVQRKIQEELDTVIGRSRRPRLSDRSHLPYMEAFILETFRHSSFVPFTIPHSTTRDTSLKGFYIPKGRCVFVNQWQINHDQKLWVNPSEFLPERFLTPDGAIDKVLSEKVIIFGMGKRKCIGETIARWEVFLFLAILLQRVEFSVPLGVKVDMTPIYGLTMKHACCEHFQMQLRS
As to the kind of experiment: Mechanism based inhibition of human cytochrome P450 1A1 measured by 7-ethoxyresorufin O-deethylation (EROD). The format is ADME.

For data set [10], the target named is Cytochrome P450 2C9 (Homo sapiens, UniProt P11712). As to the kind of experiment: Mechanism based inhibition of human cytochrome P450 2C9 measured by diclofenac 4-hydroxylation. The format is ADME.
Data set [11] deals with T6, CYP2B1 (Rattus norvegicus, UniProt P00176).
T6 sequence (P00176 whole entry): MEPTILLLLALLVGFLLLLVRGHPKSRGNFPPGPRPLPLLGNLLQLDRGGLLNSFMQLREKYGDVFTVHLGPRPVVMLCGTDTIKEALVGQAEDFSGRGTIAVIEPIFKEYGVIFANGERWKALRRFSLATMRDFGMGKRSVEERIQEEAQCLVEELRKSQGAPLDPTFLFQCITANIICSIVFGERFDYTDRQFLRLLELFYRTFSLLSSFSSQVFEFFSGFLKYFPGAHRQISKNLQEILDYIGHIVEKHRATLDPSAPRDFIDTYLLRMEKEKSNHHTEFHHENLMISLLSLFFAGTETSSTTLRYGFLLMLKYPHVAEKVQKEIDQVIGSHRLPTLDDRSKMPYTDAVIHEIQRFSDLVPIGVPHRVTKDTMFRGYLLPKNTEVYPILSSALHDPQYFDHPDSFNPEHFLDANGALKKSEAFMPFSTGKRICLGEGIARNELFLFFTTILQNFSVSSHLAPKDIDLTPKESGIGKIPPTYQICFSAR
As to the kind of experiment: (§3) Mechanism based inhibition of rat cytochrome P450 CYP2B1 measured by 7-pentoxyresorufin […] activity (PROD). The format is ADME. The conditions noted are these: rat, probe 7-pentoxyresorufin ([…], PROD).

Data set [12] has as its target T7, Cytochrome P450 2B1 (Rattus norvegicus, UniProt P00176).
T7 sequence (P00176 whole entry): T6 sequence (P00176 whole entry)
The description is as §3. The format is ADME.

The target of data set [13] is T8, Cytochrome P450 2D6 (Homo sapiens, UniProt P10635). As to the kind of experiment: Mechanism based inhibition of human cytochrome P450 2D6 measured by […] 1'-hydroxylation. The format is ADME.
Data set [14] addresses T8, Cytochrome P450 2D6. As to the kind of experiment: (§4) Mechanism based inhibition of human cytochrome P450 2D6 measured by dextromethorphan O-demethylation using human liver microsomes. The data set is classed as ADME, Microsome. On the technique in general: Microsomes from liver hold many membrane-bound enzymes, among them those of drug oxidation.
Data set [15] addresses CYP2D6 (Homo sapiens, UniProt P10635). The data set is described as §4. The format is ADME, Microsome. The note with it: human, human liver microsomes, probe dextromethorphan.
Data set [16] addresses T6, CYP2B1. The experiment in a line: (§5) Mechanism based inhibition of rat cytochrome P450 CYP2B1 measured by 7-EFC O-deethylation activity. The data set is classed as ADME. The conditions noted are these: rat, probe 7-EFC (O-deethylation).
For data set [17], the target named is T7, Cytochrome P450 2B1. Described as §5. The data set is classed as ADME.
The target in data set [18] is T4, Cytochrome P450 3A5. As to the kind of experiment: Mechanism based inhibition of human cytochrome P450 3A5 measured by testosterone hydroxylation. The data set is classed as ADME.
Data set [19] deals with T7, Cytochrome P450 2B1. As to the kind of experiment: Mechanism based inhibition of rat cytochrome P450 CYP2B1. The format is ADME. The note with it: rat.

As usually defined, the kinact is the maximal first-order rate at which the target is inactivated.

T1 sequence (P05181 whole entry): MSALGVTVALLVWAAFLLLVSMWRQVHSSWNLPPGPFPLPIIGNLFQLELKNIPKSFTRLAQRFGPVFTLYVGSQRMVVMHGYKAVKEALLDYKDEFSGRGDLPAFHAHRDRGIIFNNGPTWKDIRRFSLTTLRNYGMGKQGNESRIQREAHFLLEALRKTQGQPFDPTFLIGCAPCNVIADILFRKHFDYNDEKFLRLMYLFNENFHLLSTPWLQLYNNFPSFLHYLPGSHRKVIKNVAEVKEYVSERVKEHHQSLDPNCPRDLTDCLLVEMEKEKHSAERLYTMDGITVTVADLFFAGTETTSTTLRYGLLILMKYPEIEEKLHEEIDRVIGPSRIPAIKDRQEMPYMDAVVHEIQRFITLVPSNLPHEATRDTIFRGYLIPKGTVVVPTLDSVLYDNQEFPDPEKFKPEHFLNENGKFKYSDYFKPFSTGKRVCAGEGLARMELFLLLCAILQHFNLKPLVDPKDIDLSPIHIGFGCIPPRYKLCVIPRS
T3 sequence (P08684 whole entry): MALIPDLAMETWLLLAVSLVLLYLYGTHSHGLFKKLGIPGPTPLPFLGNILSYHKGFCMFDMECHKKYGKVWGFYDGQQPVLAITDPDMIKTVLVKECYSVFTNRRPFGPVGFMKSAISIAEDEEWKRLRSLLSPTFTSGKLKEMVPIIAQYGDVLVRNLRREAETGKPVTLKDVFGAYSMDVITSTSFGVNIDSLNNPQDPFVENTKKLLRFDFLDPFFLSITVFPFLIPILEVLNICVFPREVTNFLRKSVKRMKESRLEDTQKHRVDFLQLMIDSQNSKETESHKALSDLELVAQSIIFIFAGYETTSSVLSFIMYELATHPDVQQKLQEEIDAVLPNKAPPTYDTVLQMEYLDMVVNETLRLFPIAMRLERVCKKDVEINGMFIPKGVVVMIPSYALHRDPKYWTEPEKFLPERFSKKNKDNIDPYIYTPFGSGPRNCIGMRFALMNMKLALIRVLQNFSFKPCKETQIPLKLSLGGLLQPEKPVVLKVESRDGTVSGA
Chain of Cytochrome P450 2C9 (P11712 whole entry): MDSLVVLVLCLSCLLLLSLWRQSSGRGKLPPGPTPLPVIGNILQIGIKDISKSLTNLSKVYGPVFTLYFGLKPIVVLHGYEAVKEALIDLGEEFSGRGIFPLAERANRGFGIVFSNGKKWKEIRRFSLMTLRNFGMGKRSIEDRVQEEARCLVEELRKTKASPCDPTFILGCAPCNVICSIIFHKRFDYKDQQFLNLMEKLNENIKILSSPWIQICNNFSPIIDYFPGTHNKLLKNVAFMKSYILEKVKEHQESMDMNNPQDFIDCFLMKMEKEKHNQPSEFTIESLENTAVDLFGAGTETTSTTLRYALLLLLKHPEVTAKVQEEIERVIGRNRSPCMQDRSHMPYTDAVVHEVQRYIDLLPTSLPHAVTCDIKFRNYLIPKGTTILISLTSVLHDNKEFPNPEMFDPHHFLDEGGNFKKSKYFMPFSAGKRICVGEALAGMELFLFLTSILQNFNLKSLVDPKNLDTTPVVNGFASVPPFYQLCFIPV
T8 sequence (P10635 whole entry): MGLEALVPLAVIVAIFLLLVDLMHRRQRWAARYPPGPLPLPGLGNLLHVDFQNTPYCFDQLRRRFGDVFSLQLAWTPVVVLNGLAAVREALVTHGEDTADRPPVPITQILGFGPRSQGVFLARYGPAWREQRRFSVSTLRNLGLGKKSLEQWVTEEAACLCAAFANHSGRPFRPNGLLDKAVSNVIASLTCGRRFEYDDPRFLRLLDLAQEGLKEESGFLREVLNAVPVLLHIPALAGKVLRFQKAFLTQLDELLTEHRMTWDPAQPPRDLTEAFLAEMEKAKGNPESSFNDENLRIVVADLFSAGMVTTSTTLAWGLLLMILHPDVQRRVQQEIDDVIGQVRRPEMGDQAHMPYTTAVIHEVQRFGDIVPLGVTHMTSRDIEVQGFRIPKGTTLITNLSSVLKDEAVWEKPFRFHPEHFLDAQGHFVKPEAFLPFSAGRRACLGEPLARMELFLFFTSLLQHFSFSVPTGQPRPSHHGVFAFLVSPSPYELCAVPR
T4 sequence (P20815 whole entry): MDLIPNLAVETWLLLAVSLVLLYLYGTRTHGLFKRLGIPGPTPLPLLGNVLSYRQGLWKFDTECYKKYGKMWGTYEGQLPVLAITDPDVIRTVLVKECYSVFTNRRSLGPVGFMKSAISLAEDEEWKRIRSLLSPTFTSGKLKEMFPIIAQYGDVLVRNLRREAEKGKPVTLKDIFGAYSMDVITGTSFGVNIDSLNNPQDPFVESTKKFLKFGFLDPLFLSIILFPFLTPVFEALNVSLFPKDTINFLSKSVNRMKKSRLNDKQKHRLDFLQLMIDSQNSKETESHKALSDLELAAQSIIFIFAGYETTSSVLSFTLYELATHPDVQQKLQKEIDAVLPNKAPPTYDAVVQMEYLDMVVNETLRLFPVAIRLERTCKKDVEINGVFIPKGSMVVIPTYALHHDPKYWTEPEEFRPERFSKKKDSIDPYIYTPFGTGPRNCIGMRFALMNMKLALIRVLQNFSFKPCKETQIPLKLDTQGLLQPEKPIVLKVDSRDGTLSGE
Chain of CYP2D6 (P10635 whole entry): as the sequence (P10635 whole entry) above

Turning to `CCN(CC)C(=S)SSC(=S)N(CC)CC`, the mechanism based inhibition result in [1] was “Cytochrome P450 mechanistic inhibitor: PMID 1664256”; in [1] (human), “Cytochrome P450 mechanistic inhibitor: PMID 10805064”; in data set [2], “Cytochrome P450 mechanistic inhibitor: PMID 9695717”. Consider `Nc1c2c(nc3ccccc13)CCCC2` [TACRINE], for which the Ki in [3] was determined as 1940 nM. Take `CN(C)c1ccc([C@H]2C[C@]3(C)[C@@H](CC[C@]3(O)CCCO)[C@@H]3CCC4=CC(=O)CCC4=C32)cc1` [ONAPRISTONE]: in data set [4], the mechanism based inhibition entry is listed as “Cytochrome P450 mechanistic inhibitor: PMID 9697076”.

On to `CN(C)c1ccc([C@H]2C[C@@]3(C)[C@@H](CC[C@@]3(O)/C=C\CO)[C@@H]3CCC4=CC(=O)CCC4=C32)cc1` [LILOPRISTONE], for which the mechanism based inhibition entry in data set [4] was “Cytochrome P450 mechanistic inhibitor: PMID 9697076”. In the case of `O=C(NC(/C=C/S(=O)(=O)c1ccccc1)CCc1ccccc1)C(Cc1ccccc1)NC(=O)N1CCOCC1` (configuration not stated), the mechanism based inhibition entry in [5] is reported as “Cytochrome P450 mechanistic inhibitor: PMID 11038163”. For the molecule `CC(C)(C)NC(=O)[C@@H]1C[C@@H]2CCCC[C@@H]2CN1C[C@@H](O)[C@H](Cc1ccccc1)NC(=O)[C@H](CC(N)=O)NC(=O)c1ccc2ccccc2n1`, the mechanism based inhibition result in data set [6] is “Cytochrome P450 mechanistic inhibitor: PMID 15523003”. Take `CCOC(=O)C1=C(C)N=C(C)/C(=C(/O)OCC)C1CC` (configuration not stated): the mechanism based inhibition result in [7], in [8], in data set [9] and in data set [10] was “Cytochrome P450 mechanistic inhibitor: PMID 9107543” throughout.

In the case of `C#CCN(C)C(C)CCCCC.C#CCN[C@@H](C)CCCCC.C#CCN[C@H](C)CCCCC` (configuration not stated), the kinact in data set [11] was 0.00133 s⁻¹. This molecule also had a Ki in data set [12] of 800 nM.

Regarding `COc1ccc2c(c1OC)C(=O)O[C@@H]2[C@H]1c2cc3c(cc2CCN1C)OCO3` [HYDRASTINE], the mechanism based inhibition result in data set [13] and in [10] was “Cytochrome P450 mechanistic inhibitor: PMID 14570772” each time. For the molecule `Fc1cnc(N2CCN(CC3=NC(c4ccccc4)=NC3)CC2)nc1`, the Ki in [14] was determined as 4800 nM. Further, in [15], the kinact was 0.00233 s⁻¹.

`C#CCN(C)[C@H](C)Cc1ccccc1` [SELEGILINE]: in data set [16], the kinact is 0.00383 s⁻¹. Further, in data set [17], the Ki came out at 1050 nM. For `Cc1c(O)cccc1C(=O)N[C@@H](CSc1ccccc1)[C@H](O)CN1C[C@H]2CCCC[C@H]2C[C@H]1C(=O)NC(C)(C)C`, the Ki in [18] is 570 nM. With `C=CCC1(C(C)CCC)C(=O)NC(=O)NC1=O` (configuration not stated) [SECOBARBITAL], the mechanism based inhibition result in data set [19] is listed as “Cytochrome P450 mechanistic inhibitor: PMID 8728507”.
